From EPA's ToxRefDB 2 come the findings set out here.

The test system of data set [1] is mouse. The conditions noted are these: Subchronic oral toxicity in rodents, b6c3f1, Gavage/Intubation, dose end: 13 week, group: systemic, systemic / in life observation / clinical signs / lethargy + systemic / organ weight / liver / absolute + systemic / organ weight / liver / ….
In data set [2] the test system is rat. The conditions noted are these: Prenatal developmental toxicity study, sprague dawley, Oral, Gavage/Intubation, dose end: 15 GD.
Data set [3] deals with mouse. The following applies: Carcinogenicity, b6c3f1, Oral, Gavage/Intubation, dose end: 2 year, group: systemic.
For data set [4], the system named is rabbit. The following applies: Prenatal developmental toxicity study, new zealand white, Oral, Gavage/Intubation, dose end: 18 GD.
Data set [5] has as its system rat. The conditions noted are these: Multigenerational reproductive toxicity study, sprague dawley, Oral, Gavage/Intubation, dose end: 2 generation, group: parental.
For data set [6], the system named is rat. The conditions noted are these: Subchronic oral toxicity in rodents, fischer, Gavage/Intubation, dose end: 13 week, group: systemic.
The subject of data set [7] is rat. The following applies: Carcinogenicity, fischer, Oral, Gavage/Intubation, dose end: 2 year, group: systemic.
Data set [8] relates to rat. The conditions noted are these: Fertility (Segment I); sprague dawley; Oral; Gavage/Intubation; dose end: 4 week; group: parental; systemic / organ weight / epididymis / relative to body weight + systemic / pathology microscopic / epididymis / [other] + systemic / ….
The subject of data set [9] is dog. The following applies: Chronic toxicity; beagle; Oral; Feed; dose end: 26 week; group: systemic; systemic / in life observation / body weight / body weight + systemic / clinical chemistry / [other] / [other] + systemic / clinical ….
The subject of data set [10] is mouse. The following applies: Carcinogenicity, b6c3f1, Oral, Feed, dose end: 24 month, group: systemic.
Data set [11] deals with dog. The following applies: Chronic toxicity, beagle, Oral, Feed, dose end: 12 month.
Data set [12] deals with rabbit. The conditions noted are these: Prenatal developmental toxicity study; chinchilla; Oral; Gavage/Intubation; dose end: 18 GD; group: maternal; reproductive / reproductive performance / postimplantation loss / postimplantation loss + systemic / in life observation / body weight / ….
For data set [13], the system named is rat. The following applies: Combined chronic toxicity/carcinogenicity, other, Oral, Feed, dose end: 106 week.
The test system of data set [14] is mouse. The following applies: Subchronic oral toxicity in rodents, b6c3f1, Feed, dose end: 13 week, group: systemic, systemic / in life observation / body weight / body weight.
Data set [15] deals with rat. The conditions noted are these: Carcinogenicity; fischer; Oral; Feed; dose end: 103 week; group: systemic; systemic / in life observation / clinical signs / drooping eyelids (ptosis) + systemic / pathology microscopic / adrenal gland / ….
Data set [16] deals with mouse. The conditions noted are these: Carcinogenicity, b6c3f1, Oral, Feed, dose end: 103 week, group: systemic.
[17] abbreviates: group: developmental, systemic / in life observation / body weight / fetal weight.
Where [18] appears, read: group: maternal, systemic / in life observation / clinical signs / urine, discoloration.
Where [19] appears, read: group: maternal, systemic / in life observation / clinical signs / urine, discoloration + systemic / in life observation / body weight / body weight + ….
Setting [20] is: systemic / in life observation / body weight / body weight + systemic / pathology microscopic / thyroid gland / hyperplasia + systemic / ….
Where [21] appears, read: systemic / pathology microscopic / thyroid gland / hyperplasia + systemic / pathology microscopic / liver / cytomegaly + systemic / ….
Where [22] appears, read: group: developmental, developmental / developmental malformation / bone / bent + developmental / developmental malformation / eye / microphthalmia.
[23] abbreviates: group: maternal, systemic / in life observation / body weight / body weight + systemic / in life observation / body weight / body weight gain + systemic / in….
The mark [24] stands for this setting: systemic / in life observation / clinical signs / tremors + systemic / in life observation / body weight / body weight gain.
[25] abbreviates: systemic / organ weight / liver / absolute + systemic / organ weight / liver / relative to body weight.
Where [26] appears, read: systemic / in life observation / body weight / body weight + systemic / organ weight / kidney / relative to body weight + systemic / ….
[27] abbreviates: systemic / in life observation / body weight / body weight + systemic / pathology microscopic / blood / leukemia mononuclear.
The mark [28] stands for this setting: systemic / clinical chemistry / alanine aminotransferase (alt/sgpt) / alanine aminotransferase (alt/sgpt) + systemic / organ weight / liver….
Setting [29] is: systemic / clinical chemistry / protein / protein.
The mark [30] stands for this setting: group: cholinesterase, cholinesterase / cholinesterase / cholinesterase / erythrocyte cholinesterase (che) + cholinesterase / cholinesterase / cholinesterase / ….
Setting [31] is: group: systemic, systemic / clinical chemistry / cholesterol / cholesterol.
Where [32] appears, read: group: systemic, systemic / clinical chemistry / cholesterol / cholesterol + systemic / in life observation / clinical signs / vomitting.
[33] abbreviates: group: cholinesterase, cholinesterase / cholinesterase / cholinesterase / plasma cholinesterase (che) + cholinesterase / cholinesterase / cholinesterase / ….
Setting [34] is: group: systemic, systemic / in life observation / body weight / body weight + systemic / in life observation / food consumption / food consumption.
[35] abbreviates: group: systemic, systemic / in life observation / body weight / body weight + systemic / in life observation / food consumption / food consumption + systemic….
[36] abbreviates: systemic / in life observation / body weight / body weight.
Where [37] appears, read: systemic / in life observation / body weight / body weight + systemic / pathology microscopic / mammary gland / mixed tumor malignant + ….

With `Oc1ccc(O)cc1` [Hydroquinone], the LEL with mouse [1] stood at 25 mg/kg/day; in the data set on rat [2] (setting [17]), 300 mg/kg/day; with rat [2] (setting [18]) it was 30 mg/kg/day; with mouse [3] (setting [21]), 50 mg/kg/day; in the data set on rabbit [4] (setting [22]) it was 150 mg/kg/day; in the data set with rabbit [4] (group: maternal, systemic / in life observation / food consumption / food consumption), 75 mg/kg/day. The LEL in the data set on rat [5] (setting [24]) stood at 150 mg/kg/day; in the data set on rat [6] (setting [25]), 25 mg/kg/day; in the data set with rat [7] (setting [27]), 25 mg/kg/day. Moreover, the lowest-observed-adverse-effect level (LOAEL) in the data set with mouse [1] was greater than 400 mg/kg/day; with rat [2] (setting [17]), greater than 300 mg/kg/day; with rat [2] (setting [19]) it was greater than 300 mg/kg/day; in the data set on mouse [3] (setting [20]), 100 mg/kg/day; in the data set on rabbit [4] (setting [22]) it was greater than 150 mg/kg/day; in the data set with rabbit [4] (setting [23]), greater than 150 mg/kg/day. The LOAEL with rat [5] (setting [24]) is greater than 150 mg/kg/day; in the data set with rat [6] (systemic / in life observation / clinical signs / lethargy + systemic / pathology microscopic / kidney / degeneration + systemic / pathology…) it was 200 mg/kg/day; with rat [7] (setting [26]), 50 mg/kg/day. Besides, the NEL in the data set with mouse [1] is less than 25 mg/kg/day; in the data set on rat [2] (setting [17]) it was 100 mg/kg/day; in the data set on rat [2] (setting [18]), less than 30 mg/kg/day; with mouse [3] (setting [21]) it was less than 50 mg/kg/day; in the data set with rabbit [4] (setting [22]), 75 mg/kg/day; in the data set with rabbit [4] (setting [23]), 25 mg/kg/day. Further, the figures for the NEL in the data set on rat [5] (systemic / in life observation / clinical signs / tremors), in the data set with rat [6] (setting [25]) and in the data set with rat [7] (setting [27]) were 50 mg/kg/day, less than 25 mg/kg/day and less than 25 mg/kg/day, respectively. For the same molecule, the NOAEL is no less than 400 mg/kg/day in the data set with mouse [1]; no less than 300 mg/kg/day in the data set with rat [2] (setting [17]); no less than 300 mg/kg/day with rat [2] (setting [19]); 50 mg/kg/day with mouse [3] (setting [20]); no less than 150 mg/kg/day with rabbit [4] (setting [22]); no less than 150 mg/kg/day in the data set with rabbit [4] (setting [23]). The NOAEL in the data set on rat [5] (setting [24]) was no less than 150 mg/kg/day; with rat [6] (systemic / organ weight / liver / absolute + systemic / organ weight / liver / relative to body weight + systemic / in life observation / …), 100 mg/kg/day; in the data set with rat [7] (setting [26]) it was 25 mg/kg/day.
Turning to `COS(C)(=O)=O` [Methyl methanesulfonate], in the data set on rat [8], the LEL was 20 mg/kg/day, the LOAEL is greater than 20 mg/kg/day, the NEL was less than 20 mg/kg/day and the NOAEL is no less than 20 mg/kg/day.
Regarding `CNC(=O)Oc1ccccc1OC(C)C` [Propoxur], the LEL in the data set with dog [9] worked out at 1.75 mg/kg/day; in the data set with mouse [10] (setting [29]) it was 150 mg/kg/day; in the data set with dog [11] (setting [30]), 781 mg/kg/day; in the data set with dog [11] (setting [32]) it was 62.4 mg/kg/day; in the data set with rabbit [12], 30 mg/kg/day; in the data set on rat [13] (setting [33]) it was 250 mg/kg/day. For the same molecule, in the data set on rat [13] (setting [34]), the LEL was 10 mg/kg/day. For the same molecule, the LOAEL in the data set on dog [9] is greater than 1.75 mg/kg/day; with mouse [10] (setting [28]), 472 mg/kg/day; with dog [11] (setting [30]) it was greater than 781 mg/kg/day; with dog [11] (setting [31]), 62.4 mg/kg/day; with rabbit [12], 30 mg/kg/day; with rat [13] (setting [33]) it was greater than 250 mg/kg/day. The LOAEL in the data set with rat [13] (setting [35]) is 250 mg/kg/day. The NEL was less than 1.75 mg/kg/day in the data set on dog [9]; less than 150 mg/kg/day in the data set with mouse [10] (setting [29]); 186 mg/kg/day in the data set on dog [11] (setting [30]); less than 62.4 mg/kg/day in the data set with dog [11] (setting [32]); 10 mg/kg/day with rabbit [12]; 50 mg/kg/day in the data set with rat [13] (group: cholinesterase, cholinesterase / cholinesterase / cholinesterase / plasma cholinesterase (che)). Besides, the NEL with rat [13] (setting [34]) is less than 10 mg/kg/day. The NOAEL was no less than 1.75 mg/kg/day in the data set on dog [9]; 114 mg/kg/day with mouse [10] (setting [28]); no less than 781 mg/kg/day in the data set with dog [11] (setting [30]); less than 62.4 mg/kg/day in the data set on dog [11] (setting [31]); 10 mg/kg/day with rabbit [12]; no less than 250 mg/kg/day in the data set on rat [13] (setting [33]). Besides, in the data set with rat [13] (setting [35]), the NOAEL was determined as 50 mg/kg/day.
In the case of `COC(=O)[C@H]1[C@H]2C[C@@H]3c4[nH]c5cc(OC)ccc5c4CCN3C[C@H]2C[C@@H](OC(=O)c2cc(OC)c(OC)c(OC)c2)[C@@H]1OC` [Reserpine], the LEL amounted to 0.06 mg/kg/day with mouse [14], 0.25 mg/kg/day in the data set on rat [15] and 0.75 mg/kg/day in the data set with mouse [16] (setting [37]). The LOAEL with mouse [14] is 0.225 mg/kg/day; in the data set with rat [15], greater than 0.5 mg/kg/day; with mouse [16] (setting [36]) it was 0.75 mg/kg/day. In addition, the NEL in the data set on mouse [14] is less than 0.06 mg/kg/day; in the data set with rat [15] it was less than 0.25 mg/kg/day; in the data set on mouse [16] (setting [37]), less than 0.75 mg/kg/day. Also, the NOAEL in the data set on mouse [14] is 0.12 mg/kg/day; in the data set with rat [15] it was no less than 0.5 mg/kg/day; in the data set on mouse [16] (setting [36]) it was less than 0.75 mg/kg/day.
